Experimental data reported in patent US20050065218A1, “Utilization of alverine, alone or in combination with tricyclic antidepressant or a specific serotonin reuptake inhibitor for the treatment of depression” (priority 2003, published 2005).
Several values for one entry are separate records, joined by “and”; a condition that tells them apart may be missing. Identical values can stand only once. Entries after “also recorded” stand apart in the source; their conditions may differ. Counter-ions that a name gives are not always drawn.

Experiments:
[1] = system: Swiss mice CD1; test: forced swim test, Alverine administered intraperitoneally to mice (Example 1); format: in vivo; parameters: key to Dunnett test vs control group: * indicates a significant difference for p < 0.05 (Dunnett test); ns indicates an insignificant result; settings: for immobility time, individual animals / immobility time, Mean: 30 minutes prior to the test; for immobility time, Mean: N = 10
Method: To establish the advantages according to the present invention a study was carried out to 50 mice. They were divided into 5 groups of 10 mice each. These are Swiss mice CD1 (CD-1® (ICR) IGS (Charles River France) weighing between 25 and 35 g.
They were placed in a room at a temperature of between 19.5 and 24.5° C. and a relative humidity of 45 to 65% with a light/dark cycle of 12 h, ad libitum access to filtered water and pellets of laboratory-standard food.
They are placed 15 to 20 per cage, over an acclimatising period of at least 5 days prior to the tests. They are identified by marking on the fur.
The substance to be tested is Alverine citrate (Sigma, in the form of dry powder, with a salt/base ratio of 1.68) comparatively to imipramine chlorhydrate (Sigma, in the form of dry powder, with a salt/base ratio of 1.13).
The first group is the control group: it is treated only by excipient.
The second group is treated with Alverine at a dose of 3 mg/kg
The third group is treated with Alverine at a dose of 10 mg/kg
The fourth group is treated with Alverine at a dose of 30 mg/kg
The fifth group is treated with imipramine (tricyclic antidepressant) at a dose of 10 mg/kg
The doses are expressed in terms of free active substances. The substances are prepared extemporaneously in the excipient. The treatments are administered 30 minutes prior to the test in a coded and random order intraperitoneally with a volume of 10 ml/kg.
Thirty minutes following administration the five groups of mice are subjected to the forced swim test, in a vertical Plexiglas cylinder (height 24 cm, diameter 9 cm) containing water (height 6 cm, temperature 18-22° C.). The total duration of immobility is measured over the last four minutes of the test, six minutes in total. A mouse is deemed immobile when it ceases struggling and floats in the water without movements superfluous to those allowing it to keep its head above water. A drop in immobility time is the reflection of an antidepressant effect.
The forced swim test is a pre-clinical behavioural model, which has good predictive validity and is widely employed for determining the efficacy of antidepressant medications (Borsini and Meli, 1988).
The results are expressed in total duration of immobility in seconds and as a percentage of variation of the total duration of immobility calculated from the average value of the control group.
The statistical significance between the treated groups and the control group is determined by a Dunnett test using the residual variation according to analysis of the variance (P<0.05). The data are analysed using <<SigmaStat>> software.

[2] = system: Swiss mice CD1; test: forced swim test, Alverine and fluoxetine administered intraperitoneally to mice (Example 3, second test); format: in vivo; settings: for immobility time, individual animals / immobility time, Mean: 30 minutes prior to the test; for immobility time, Mean: n = 10
Method: These are Swiss mice CD1 (CD-1® (ICR) IGS (Charles River France) weighing between 25 and 35 g. […] They are placed 15 to 20 per cage, over an acclimatising period of at least 5 days prior to the tests. They are identified by marking on the fur. […] The mice were divided into two test comprising six groups of 10 mice each. For the second test: The first group is the control group: it is treated only by excipient. […] The doses are expressed in terms of free active substances. The test substances are prepared extemporaneously in a saline solution. The treatments are co-administered 30 minutes prior to the test in a coded and random order intraperitoneally with a volume of 10 ml/kg (5 ml/kg for each administration). […] The total duration of immobility is measured over the last four minutes of the test, six minutes in total. A mouse is deemed immobile when it ceases struggling and floats in the water without movements superfluous to those allowing it to keep its head above water. A drop in immobility time is the reflection of an antidepressant effect. The forced swim test is a pre-clinical behavioural model, which has good predictive validity and is widely employed for determining the efficacy of antidepressant medications (Borsini and Meli, 1988). The results are expressed in total duration of immobility in seconds and as a percentage of variation of the total duration of immobility calculated from the average value of the control group. The statistical significance between two treated groups is determined by using a Student test (P<0.05) The data are analysed using <<SigmaStat>> software.

[3] = Alverine citrate 3 mg/kg intraperitoneally
[4] = Alverine citrate 10 mg/kg intraperitoneally
[5] = Alverine citrate 30 mg/kg intraperitoneally
[6] = Alverine 3 mg/kg intraperitoneally
[7] = Alverine 10 mg/kg intraperitoneally

## CCN(CCCc1ccccc1)CCCc1ccccc1 [Alverine citrate, N-ethyl-3,3′-diphenyldipropylamine]
[1]; 10 mg/kg intraperitoneally
  immobility time compared with mice treated at 10 mg/kg of imipramine: comparable
[1]; [3]
  % of variation of immobility time vs control group: −15%
  Dunnett test vs control group: ns
  immobility time, individual animals: 128 s and 82 s and 151 s and 132 s and 127 s and 88 s and 85 s and 99 s and 93 s and 118 s
  immobility time, Mean: 110.3 s
[1]; [4]
  % of variation of immobility time vs control group: −53%
  Dunnett test vs control group: * (* indicates a significant difference for p < 0.05 (Dunnett test))
  immobility time, individual animals: 29 s and 86 s and 28 s and 30 s and 90 s and 99 s and 65 s and 129 s and 57 s and 3 s
  immobility time, Mean: 61.6 s
[1]; [5]
  % of variation of immobility time vs control group: −80%
  Dunnett test vs control group: * (* indicates a significant difference for p < 0.05 (Dunnett test))
  immobility time, individual animals: 97 sec and 3 sec and 66 sec and 36 sec and 0 sec and 15 sec and 7 sec (2×) and 16 sec and 12 sec
  immobility time, Mean: 25.9 s
[1]; injected intraperitoneally, 3 to 30 mg/kg
  antidepressant effect (in words): antidepressant effect related to the dose; also recorded: significant antidepressant effect in mice and equal to that of Imipramine, at comparable doses
[2]; [6]
  % of variation of immobility time vs control group: −37%
  Dunnett test vs control group: * (* indicates a significant difference for p < 0.05 (Dunnett test))
  immobility time, individual animals: 119 sec and 138 sec and 117 sec (2×) and 110 sec and 73 sec and 47 sec and 124 sec and 72 sec and 32 sec
  immobility time, Mean: 94.9 s
[2]; [7]
  % of variation of immobility time vs control group: −49%
  Dunnett test vs control group: * (* indicates a significant difference for p < 0.05 (Dunnett test))
  immobility time, individual animals: 63 sec and 75 sec (2×) and 77 sec and 46 sec and 6 sec and 113 sec and 89 sec and 104 sec and 125 sec
  immobility time, Mean: 77.3 s
[2]; tested alone at 3 mg/kg intraperitoneally
  decrease in the duration of immobilisation as compared to the control group (in words): statistically significant decrease
